Patent US6399541B1, “Substituted 2,4-diamino-1,3,5-triazines as herbicides” (Bayer Aktiengesellschaft, priority 1997, dated 2002)

Legend:
Format in all cases: in vivo
weeds [1] = experiment: Pre-emergence test; conditions: cf. Table A
Method: (§1) Solvent: 5 parts by weight of acetone
(§2) Emulsifier: 1 part by weight of alkylaryl polyglycol ether
(§3) To produce a suitable preparation of active compound, 1 part by weight of active compound is mixed with the stated amount of solvent, the stated amount of emulsifier is added and the concentrate is diluted with water to the desired concentration.
(§4) Seeds of the test plants are sown in normal soil. After about 24 hours, the soil is sprayed with the preparation of active compound in such a way that the particular amounts of active compound desired are employed per unit area. The concentration of the spray liquor is chosen such that the particular amounts of active compound desired are applied in 1000 l of water/ha.
(§5) After three weeks, the degree of damage to the plants is assessed in % damage in comparison to the development of the untreated control.
(§6) 0%=no effect (as untreated control) 100%=total destruction

Alopecurus = experiment: Pre-emergence test/greenhouse; conditions: after three weeks
Method: as §1, §2, §3, §4, §5, §6

Lolium = experiment: Pre-emergence test/greenhouse; conditions: 250 g of ai./ha, after three weeks
Method: as §1, §2, §3, §4, §5, §6

Cassia [2] = experiment: Pre-emergence test/greenhouse; conditions: 250 g of ai./ha, after three weeks
Method: as §1, §2, §3, §4, §5, §6

Sorghum = experiment: Pre-emergence test/greenhouse; conditions: 250 g of ai./ha, after three weeks
Method: as §1, §2, §3, §4, §5, §6

Abutilon = experiment: Pre-emergence test/greenhouse; conditions: after three weeks
Method: as §1, §2, §3, §4, §5, §6

Amaranthus = experiment: Pre-emergence test/greenhouse; conditions: after three weeks
Method: as §1, §2, §3, §4, §5, §6

Ipomoea [3] = experiment: Pre-emergence test/greenhouse; conditions: 250 g of ai./ha, after three weeks
Method: as §1, §2, §3, §4, §5, §6

Cassia [4] = experiment: Post-emergence test/greenhouse; conditions: after three weeks
Method: as §1, §2, §3
as §4, with “Test plants which have a height” for “Seeds”, “5 to 15 cm” for “the test plants”, “are” for “are sown in normal soil. After about 24 hours, the soil is”, “applied” for “employed”
as §5
(§7) 0%=no effect (as untreated control)

Solanum [5] = experiment: Post-emergence test/greenhouse; conditions: 60 g of ai./ha, after three weeks
Method: as §1, §2, §3
as §4, with “Test plants which have a height” for “Seeds”, “5 to 15 cm” for “the test plants”, “are” for “are sown in normal soil. After about 24 hours, the soil is”, “applied” for “employed”
as §5, §7

Wheat = experiment: Post-emergence test/greenhouse; conditions: after three weeks
Method: as §1, §2, §3
as §4, with “Test plants which have a height” for “Seeds”, “5 to 15 cm” for “the test plants”, “are” for “are sown in normal soil. After about 24 hours, the soil is”, “applied” for “employed”
as §5, §7

Veronica [6] = experiment: Post-emergence test/greenhouse; conditions: after three weeks
Method: as §1, §2, §3
as §4, with “Test plants which have a height” for “Seeds”, “5 to 15 cm” for “the test plants”, “are” for “are sown in normal soil. After about 24 hours, the soil is”, “applied” for “employed”
as §5, §7

weeds [7] = experiment: Post-emergence test; conditions: cf. Table B
Method: as §1, §2, §3
as §4, with “Test plants which have a height” for “Seeds”, “5 to 15 cm” for “the test plants”, “are” for “are sown in normal soil. After about 24 hours, the soil is”, “applied” for “employed”
as §5, §7

Reapseed = experiment: Pre-emergence test/greenhouse; conditions: after three weeks
Method: as §1, §2, §3, §4, §5, §6

Echinochloa = experiment: Post-emergence test/greenhouse; conditions: 125 g of ai./ha, after three weeks
Method: as §1, §2, §3
as §4, with “Test plants which have a height” for “Seeds”, “5 to 15 cm” for “the test plants”, “are” for “are sown in normal soil. After about 24 hours, the soil is”, “applied” for “employed”
as §5, §7

Xanthium [8] = experiment: Post-emergence test/greenhouse; conditions: 125 g of ai./ha, after three weeks
Method: as §1, §2, §3
as §4, with “Test plants which have a height” for “Seeds”, “5 to 15 cm” for “the test plants”, “are” for “are sown in normal soil. After about 24 hours, the soil is”, “applied” for “employed”
as §5, §7

Matricaria [9] = experiment: Post-emergence test/greenhouse; conditions: 125 g of ai./ha, after three weeks
Method: as §1, §2, §3
as §4, with “Test plants which have a height” for “Seeds”, “5 to 15 cm” for “the test plants”, “are” for “are sown in normal soil. After about 24 hours, the soil is”, “applied” for “employed”
as §5, §7

Polygonum = experiment: Post-emergence test/greenhouse; conditions: 60 g of ai./ha, after three weeks
Method: as §1, §2, §3
as §4, with “Test plants which have a height” for “Seeds”, “5 to 15 cm” for “the test plants”, “are” for “are sown in normal soil. After about 24 hours, the soil is”, “applied” for “employed”
as §5, §7

Ipomoea [10] = experiment: Post-emergence test/greenhouse; conditions: after three weeks
Method: as §1, §2, §3
as §4, with “Test plants which have a height” for “Seeds”, “5 to 15 cm” for “the test plants”, “are” for “are sown in normal soil. After about 24 hours, the soil is”, “applied” for “employed”
as §5, §7

Barley [11] = experiment: Post-emergence test/greenhouse; conditions: 125 g of ai./ha, after three weeks
Method: as §1, §2, §3
as §4, with “Test plants which have a height” for “Seeds”, “5 to 15 cm” for “the test plants”, “are” for “are sown in normal soil. After about 24 hours, the soil is”, “applied” for “employed”
as §5, §7

Setaria [12] = experiment: Post-emergence test/greenhouse; conditions: 125 g of ai./ha, after three weeks
Method: as §1, §2, §3
as §4, with “Test plants which have a height” for “Seeds”, “5 to 15 cm” for “the test plants”, “are” for “are sown in normal soil. After about 24 hours, the soil is”, “applied” for “employed”
as §5, §7

Viola = experiment: Pre-emergence test/greenhouse; conditions: 250 g of ai./ha, after three weeks
Method: as §1, §2, §3, §4, §5, §6

Galium = experiment: Pre-emergence test/greenhouse; conditions: 1000 g of ai./ha, after three weeks
Method: as §1, §2, §3, §4, §5, §6

Chenopodium = experiment: Pre-emergence test/greenhouse; conditions: 125 g of ai./ha, after three weeks
Method: as §1, §2, §3, §4, §5, §6

Xanthium [13] = experiment: Pre-emergence test/greenhouse; conditions: 1000 g of ai./ha, after three weeks
Method: as §1, §2, §3, §4, §5, §6

Solanum [14] = experiment: Pre-emergence test/greenhouse; conditions: 125 g of ai./ha, after three weeks
Method: as §1, §2, §3, §4, §5, §6

Matricaria [15] = experiment: Pre-emergence test/greenhouse; conditions: 125 g of ai./ha, after three weeks
Method: as §1, §2, §3, §4, §5, §6

Avena fatua = experiment: Pre-emergence test/greenhouse; conditions: after three weeks
Method: as §1, §2, §3, §4, §5, §6

Datura = experiment: Pre-emergence test/greenhouse; conditions: 125 g of ai./ha, after three weeks
Method: as §1, §2, §3, §4, §5, §6

Veronica [16] = experiment: Pre-emergence test/greenhouse; conditions: 250 g of ai./ha, after three weeks
Method: as §1, §2, §3, §4, §5, §6

Barley [17] = experiment: Pre-emergence test/greenhouse; conditions: 250 g of ai./ha, after three weeks
Method: as §1, §2, §3, §4, §5, §6

Cotton = experiment: Pre-emergence test/greenhouse; conditions: 250 g of ai./ha, after three weeks
Method: as §1, §2, §3, §4, §5, §6

Setaria [18] = experiment: Pre-emergence test/greenhouse; conditions: after three weeks
Method: as §1, §2, §3, §4, §5, §6

CC(F)c1nc(N)nc(NC(C)c2ccccc2)n1 (racemic) [Example 16]
action against weeds compared with known compound (A) (weeds [1]): considerably strong action against weeds than the known compound (A)
degree of damage, Alopecurus (Alopecurus; 250 g of ai./ha): 100%
degree of damage, Lolium (Lolium): 100%
degree of damage, Cassia (Cassia [2]): 100%
degree of damage, Sorghum (Sorghum): 95%
degree of damage, Abutilon (Abutilon; 250 g of ai./ha): 80%
degree of damage, Amaranthus (Amaranthus; 250 g of ai./ha): 100%
degree of damage, Ipomoea (Ipomoea [3]): 100%

CC(Cl)c1nc(N)nc(NC(C)c2ccccc2)n1 (racemic) [Example 18]
degree of damage, Cassia (Cassia [4]; 60 g of ai./ha): 70%
degree of damage, Solanum (Solanum [5]): 90%
degree of damage, Wheat (Wheat; 60 g of ai./ha): 0%
degree of damage, Veronica (Veronica [6]; 60 g of ai./ha): 95%
activity against weeds compared with known compound (A) (weeds [7]): considerably stronger activity against weeds than the known compound (A)
action against weeds compared with known compound (A) (weeds [1]): considerably strong action against weeds than the known compound (A)
degree of damage, Reapseed (Reapseed; 250 g of ai./ha): 0%
degree of damage, Amaranthus (Amaranthus; 250 g of ai./ha): 100%
degree of damage, Ipomoea (Ipomoea [3]): 95%

CC(Nc1nc(N)nc(C(F)(F)F)n1)c1ccccc1 (centres unmarked) [(A), 2-Amino-4-(1-phenyl-ethylamino)-6-trifluoromethyl-1,3,5-triazine, reference compound]
degree of damage, Echinochloa (Echinochloa): 50%
degree of damage, Xanthium (Xanthium [8]): 60%
degree of damage, Cassia (Cassia [4]; 60 g of ai./ha): 40%
degree of damage, Cassia (Cassia [4]; 125 g of ai./ha): 80%
degree of damage, Solanum (Solanum [5]): 40%
degree of damage, Wheat (Wheat; 60 g of ai./ha): 0%
degree of damage, Wheat (Wheat; 125 g of ai./ha): 0%
degree of damage, Matricaria (Matricaria [9]): 60%
degree of damage, Polygonum (Polygonum): 80%
degree of damage, Veronica (Veronica [6]; 60 g of ai./ha): 70%
degree of damage, Veronica (Veronica [6]; 125 g of ai./ha): 90%
degree of damage, Ipomoea (Ipomoea [10]; 60 g of ai./ha): 80%
degree of damage, Ipomoea (Ipomoea [10]; 125 g of ai./ha): 90%
degree of damage, Barley (Barley [11]): 5%
degree of damage, Setaria (Setaria [12]): 50%
degree of damage, Viola (Viola): 0%
degree of damage, Galium (Galium): 60%
degree of damage, Chenopodium (Chenopodium): 20%
degree of damage, Alopecurus (Alopecurus; 250 g of ai./ha): 30%
degree of damage, Alopecurus (Alopecurus; 1000 g of ai./ha): 30%
degree of damage, Xanthium (Xanthium [13]): 70%
degree of damage, Lolium (Lolium): 0%
degree of damage, Cassia (Cassia [2]): 20%
degree of damage, Solanum (Solanum [14]): 0%
degree of damage, Matricaria (Matricaria [15]): 0%
degree of damage, Reapseed (Reapseed; 125 g of ai./ha): 40%
degree of damage, Reapseed (Reapseed; 250 g of ai./ha): 40%
degree of damage, Sorghum (Sorghum): 0%
degree of damage, Abutilon (Abutilon; 250 g of ai./ha): 0%
degree of damage, Abutilon (Abutilon; 1000 g of ai./ha): 0%
degree of damage, Avena fatua (Avena fatua; 250 g of ai./ha): 0%
degree of damage, Avena fatua (Avena fatua; 1000 g of ai./ha): 0%
degree of damage, Amaranthus (Amaranthus; 125 g of ai./ha): 40%
degree of damage, Amaranthus (Amaranthus; 250 g of ai./ha): 80%
degree of damage, Amaranthus (Amaranthus; 1000 g of ai./ha): 70%
degree of damage, Datura (Datura): 0%
degree of damage, Veronica (Veronica [16]): 20%
degree of damage, Ipomoea (Ipomoea [3]): 20%
degree of damage, Barley (Barley [17]): 0%
degree of damage, Cotton (Cotton): 0%
degree of damage, Setaria (Setaria [18]; 250 g of ai./ha): 0%
degree of damage, Setaria (Setaria [18]; 1000 g of ai./ha): 20%
